Measurements published in patent publication US20260191809A1, “Pharmaceutical Compositions Of D10-Docosahexaenoic Acid Or Esters Thereof” (BioJiva LLC, priority 2022, published 2026).

What was measured:
geographic atrophy = assay: Protection against geographic atrophy after intravitreal ferric ammonium citrate; format: in vivo, C57BL/6J mice
Description: In this example, two cohorts of adult male wild-type C57BL/6J mice (Jackson Labs) were used. Both cohorts were fed identical feed containing 0.25% or 0.5% D-DHA or matching amounts of DHA as controls. After 4 weeks, the mice were given an intravitreal injection of 1 microliter of 0.5 millimolar ferric ammonium citrate diluted in 0.9% saline (test) or 1 microliter of 0.9% saline (control). Mice were then continued on their respective diets for 4 weeks after injection in order to evaluate whether D-DHA could protect against geographic atrophy which is related to AMD.

[1] = Predicted steady-state D-DHA substitution and plasma decline without dosing in patients, modeled from the mouse data; design: species or system human; details: for D-DHA substitution rate at steady-state (% of total DHA): DHA in human diet 130 mg
Description: In contrast to controlled experimental diets, naturally occurring DHA is consumed by patients treated with D-DHA which can dilute the relative percentage of administered D-DHA absorbed with the total DHA pool and its final concentration at steady state in blood and eventually in the target tissue such as retina. The data and standard curves referred to above allow for the determination of retinal steady-state active D-DHA concentrations with reasonable accuracy by calculating the D-DHA/total DHA ratio in plasma and/or red blood cells. Table 4 exemplifies this by using a mean daily dietary intake of about 130 mg of DHA per day (which represents the 90th percentile of the mean usual DHA intake by males >51 years of age in the US.
FIGS. 3, 4, 5, and 6 illustrate how measuring plasma and red blood cell active D-DHA concentrations can be used to predict expected retinal steady-state concentrations. With a known fixed daily dose and the measured of active D-DHA substitution rate at steady-state, this also allows to approximate and monitor the mean dietary DHA intake of individual patients and permits either a timely adjustment of the daily D-DHA dose or dietary interventions to reduce natural DHA intake until the desired therapeutic active D-DHA substitution levels, preferably about 50% or more, can be reached.
In each case, the first order kinetics evidence that a dose of 250 mg dose of D-DHA will provide for a steady-state ratio of active D-DHA based on the total DHA concentration present, as set forth in Table 4. Extrapolating backwards from the case in Table 4, a dose of at least 130 mg/day of D-DHA should provide a 1:1 ratio of active D-DHA to DHA. That ratio has been shown above to be therapeutic. And a dose of 250 mg of higher should provide a ratio of 1.9:1 or higher which provides a margin for non-compliance as described herein above.
Tables 5, 6, and 7 are based on Table 2 and describe the time it takes for plasma D-DHA levels to fall below 50% or below 20% with 5 different daily doses of D-DHA in (i) patients in the 90th percentile of daily intake consuming up to 130 mg DHA (Table 5), (ii) those in the 95th percentile with a daily intake of up to 180 mg DHA (Table 6), and (iii) an example of a patient consuming more than one meal of oily fish per week with up to 260 mg daily DHA intake.

[2] = as above; design: species or system human
[3] = mouse, in vivo
Description: Mature adult C57BL/6J mice were fed for 77 days with a customized rodent diet containing 0.5% w/w D-DHA and no natural DHA. The animals were sacrificed, and plasma, red blood cells and retinal tissues were dissected at study Days 8, 19, 38, 77, (six animals per time point, 3 males+3 females). Active D-DHA+DHA were extracted from samples and derivatized into methyl esters with a mixture of heptane/toluene (63:37 by volume), and methanol/dimethoxypropane/sulfuric acid (85:11:4 by volume) by gentle shaking at 80° C. for 2 hours, followed by separation and drying down of the organic phase under nitrogen. D-DHA+DHA methyl esters were structurally identified and quantified by gas chromatography coupled with a tandem mass spectrometry detector and D-DHA substitution levels (in percent of total DHA) were calculated.

[4] = Daily D-DHA Dose 250 mg, Background DHA/Day 130 mg
[5] = Daily D-DHA Dose 250 mg, Background DHA/Day 180 mg
[6] = Daily D-DHA Dose 250 mg, Background DHA/Day 260 mg
[7] = Daily D-DHA Dose 500 mg, Background DHA/Day 130 mg
[8] = Daily D-DHA Dose 500 mg, Background DHA/Day 180 mg
[9] = Daily D-DHA Dose 500 mg, Background DHA/Day 260 mg
[10] = Daily D-DHA Dose 750 mg, Background DHA/Day 260 mg
[11] = Daily D-DHA Dose 1000 mg, Background DHA/Day 260 mg

ratio of D-DHA to DHA at steady state ([1]; 250 mg D-DHA per day, on average about 130 mg per day of DHA, plasma, red blood cells, liver, skeletal muscle): 1.92 to 1
Time to reach 20% in Plasma (0.2:1 D-DHA to DHA Ratio) w/o taking oral D-DHA [1, 4]: ≤ 77 days
Time to reach ≤50% in Plasma (1:1 D-DHA to DHA Ratio) w/o taking oral D-DHA [1, 4]: ≤ 22 days
Days to reach ≤50% in Plasma (1:1 D-DHA to DHA Ratio) w/o taking oral D-DHA [1, 5]: ≤ 11 days
Time to reach 20% in Plasma (0.2:1 D-DHA to DHA Ratio) w/o taking oral D-DHA [1, 5]: ≤ 66 days
Days to reach ≤50% in Plasma (1:1 D-DHA to DHA Ratio) w/o taking oral D-DHA [1, 6]: below 50%
Time to reach 20% in Plasma (0.2:1 D-DHA to DHA Ratio) w/o taking oral D-DHA [1, 6]: ≤ 29 days
Time to reach 20% in Plasma (0.2:1 D-DHA to DHA Ratio) w/o taking oral D-DHA [1, 7]: ≤ 46 days
Time to reach ≤50% in Plasma (1:1 D-DHA to DHA Ratio) w/o taking oral D-DHA [1, 7]: ≤ 6 days
Days to reach ≤50% in Plasma (1:1 D-DHA to DHA Ratio) w/o taking oral D-DHA [1, 8]: ≤ 35 days
Time to reach 20% in Plasma (0.2:1 D-DHA to DHA Ratio) w/o taking oral D-DHA [1, 8]: ≤ 90 days
Days to reach ≤50% in Plasma (1:1 D-DHA to DHA Ratio) w/o taking oral D-DHA [1, 9]: ≤ 8 days
Time to reach 20% in Plasma (0.2:1 D-DHA to DHA Ratio) w/o taking oral D-DHA [1, 9]: ≤ 63 days
Time to reach ≤50% in Plasma (1:1 D-DHA to DHA Ratio) w/o taking oral D-DHA ([1]; Daily D-DHA Dose 750 mg, Background DHA/Day 130 mg): ≤ 60 days
Days to reach ≤50% in Plasma (1:1 D-DHA to DHA Ratio) w/o taking oral D-DHA ([1]; Daily D-DHA Dose 750 mg, Background DHA/Day 180 mg): ≤ 49 days
Days to reach ≤50% in Plasma (1:1 D-DHA to DHA Ratio) w/o taking oral D-DHA [1, 10]: ≤ 26 days
Time to reach 20% in Plasma (0.2:1 D-DHA to DHA Ratio) w/o taking oral D-DHA [1, 10]: ≤ 81 days
Time to reach ≤50% in Plasma (1:1 D-DHA to DHA Ratio) w/o taking oral D-DHA ([1]; Daily D-DHA Dose 1000 mg, Background DHA/Day 130 mg): ≤ 70 days
Days to reach ≤50% in Plasma (1:1 D-DHA to DHA Ratio) w/o taking oral D-DHA ([1]; Daily D-DHA Dose 1000 mg, Background DHA/Day 180 mg): ≤ 59 days
Days to reach ≤50% in Plasma (1:1 D-DHA to DHA Ratio) w/o taking oral D-DHA [1, 11]: ≤ 38 days
Time to reach 20% in Plasma (0.2:1 D-DHA to DHA Ratio) w/o taking oral D-DHA [1, 11]: ≤ 93 days
Time to reach ≤50% in Plasma (1:1 D-DHA to DHA Ratio) w/o taking oral D-DHA ([1]; Daily D-DHA Dose 1250 mg, Background DHA/Day 130 mg): ≤ 77 days
Days to reach ≤50% in Plasma (1:1 D-DHA to DHA Ratio) w/o taking oral D-DHA ([1]; Daily D-DHA Dose 1250 mg, Background DHA/Day 180 mg): ≤ 67 days
Days to reach ≤50% in Plasma (1:1 D-DHA to DHA Ratio) w/o taking oral D-DHA ([1]; Daily D-DHA Dose 1250 mg, Background DHA/Day 260 mg): ≤ 47 days
D-DHA substitution rate at steady-state (% of total DHA) ([1]; Fixed daily D-DHA dose 250 mg): 66%
D-DHA substitution rate at steady-state (% of total DHA) ([1]; Fixed daily D-DHA dose 500 mg): 79%
D-DHA substitution rate at steady-state (% of total DHA) ([1]; Fixed daily D-DHA dose 1000 mg): 88%
time to plasma steady state concentration of active D-DHA after the start of therapy ([1]; plasma, patients): about 14 days
time to red blood cell steady state concentration of active D-DHA after the start of therapy ([2]; red blood cell, patients): about 45 days
time to steady state concentration of active D-DHA after start of therapy ([2]; skeletal muscle tissue): about 11 weeks
accretion half-life [3]: ~210 h
Structure (SMILES): [2H]C([2H])(/C=C\CC)/C=C\C([2H])([2H])/C=C\C([2H])([2H])/C=C\C([2H])([2H])/C=C\C([2H])([2H])/C=C\CCC(=O)O [D-DHA, D-10-docosahexaenoic acid]
protection against geographic atrophy (geographic atrophy; concentration of D-DHA at least 50% of the total DHA in the retina, feed 0.25% or 0.5% D-DHA, 4 weeks after iron injection): fully protected
protection against geographic atrophy (geographic atrophy; lower concentrations of D-DHA to DHA in the retina (below 50%)): protection was achieved but at reduced rates
protection against geographic atrophy (geographic atrophy; ratios of about 1:4 of D-DHA to DHA): protection is accorded
protection against geographic atrophy (geographic atrophy; ratios of at least about 1:1 D-DHA to DHA): maximal
